The values below come from ChEMBL document CHEMBL1909046, “DrugMatrix in vitro pharmacology data”.

Assay [1] concerns the target Delta-type opioid receptor (Homo sapiens, UniProt P41143). Format: cell membranes, HEK293, Membrane. Also: in other assays of this panel Not Active means under 50% inhibition at 10 µM.
The target in another assay is Carbonic anhydrase 2 (Homo sapiens, UniProt P00918). The experiment in a line: DRUGMATRIX: Carbonic Anhydrase II enzyme inhibition (substrate: 4-Nitrophenyl acetate (4-NPA)). Format: tissue-based, Erythrocyte. The settings on record: erythrocyte; Not Active = under 50% inhibition at 10 µM.
The target in assay [2] is T1, Polyunsaturated fatty acid lipoxygenase ALOX15 (Oryctolagus cuniculus, UniProt P12530).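 Also: inhibition of 15-lipoxygenase enzyme activity measured with linoleic acid as the substrate; in other assays of this panel Not Active means under 50% inhibition at 10 µM.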
T1 sequence (P12530 whole entry): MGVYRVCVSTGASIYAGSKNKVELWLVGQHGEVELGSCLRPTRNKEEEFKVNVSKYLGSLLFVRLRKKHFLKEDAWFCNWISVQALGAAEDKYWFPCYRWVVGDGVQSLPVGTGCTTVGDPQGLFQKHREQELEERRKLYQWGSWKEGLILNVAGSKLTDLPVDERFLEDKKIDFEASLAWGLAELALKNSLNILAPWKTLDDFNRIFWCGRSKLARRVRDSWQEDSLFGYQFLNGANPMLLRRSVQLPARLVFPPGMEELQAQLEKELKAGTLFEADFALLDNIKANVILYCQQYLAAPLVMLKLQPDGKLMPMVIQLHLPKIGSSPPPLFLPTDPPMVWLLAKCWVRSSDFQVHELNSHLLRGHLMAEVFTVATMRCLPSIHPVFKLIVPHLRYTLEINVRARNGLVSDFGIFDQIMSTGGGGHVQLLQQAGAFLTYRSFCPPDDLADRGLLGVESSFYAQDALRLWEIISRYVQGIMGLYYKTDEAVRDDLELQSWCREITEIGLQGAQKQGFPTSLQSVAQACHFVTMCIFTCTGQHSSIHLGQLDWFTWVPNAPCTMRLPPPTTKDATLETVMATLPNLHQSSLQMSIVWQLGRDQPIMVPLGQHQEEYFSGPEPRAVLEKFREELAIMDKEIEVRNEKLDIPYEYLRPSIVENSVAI
Kind of assay: biochemical. The settings on record: reticulocytes. Format: tissue-based, Reticulocytes.

The nature of assay [3]: DRUGMATRIX: Sodium/nucleoside co-transporter radioligand binding (ligand: nitrobenzylthioinosine). Format: cell membranes, Cavia porcellus, Dunkin-Hartley, Cerebral cortex, Membrane. Particulars: Not Active = under 50% inhibition at 10 µM.
The target in the next assay is T2, Interstitial collagenase (Homo sapiens, UniProt P03956).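 Also: MMP-1 enzyme inhibition assay using a peptide substrate; in other assays of this panel Not Active means under 50% inhibition at 10 µM.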
T2 sequence (P03956 whole entry): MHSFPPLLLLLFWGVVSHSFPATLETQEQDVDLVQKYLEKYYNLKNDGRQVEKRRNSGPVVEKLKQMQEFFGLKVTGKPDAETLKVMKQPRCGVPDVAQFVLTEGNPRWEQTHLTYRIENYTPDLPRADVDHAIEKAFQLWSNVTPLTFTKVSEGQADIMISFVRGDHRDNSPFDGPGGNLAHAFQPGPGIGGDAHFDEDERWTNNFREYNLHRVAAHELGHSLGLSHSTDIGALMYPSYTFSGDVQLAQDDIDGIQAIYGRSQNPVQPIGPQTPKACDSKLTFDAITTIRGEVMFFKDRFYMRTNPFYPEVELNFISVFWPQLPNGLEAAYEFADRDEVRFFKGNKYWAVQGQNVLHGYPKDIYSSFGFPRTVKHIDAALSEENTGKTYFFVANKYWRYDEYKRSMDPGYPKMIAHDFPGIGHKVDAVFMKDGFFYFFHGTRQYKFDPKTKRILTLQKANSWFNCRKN
The experiment in a line: biochemical. Format: tissue-based, Rheumatoid synovial fibroblasts.

The next assay addresses Insulin receptor (Rattus norvegicus, UniProt P15127). Format: cell membranes, Wistar, Liver, Membrane.
Assay [4] has as its target Mitogen-activated protein kinase 1 (Homo sapiens, UniProt P28482). Kind of assay: DRUGMATRIX: Protein Serine/Threonine Kinase, ERK2 enzyme inhibition (substrate: Myelin Basic Protein). More on the design: species or system Escherichia coli. The settings on record: Not Active = under 50% inhibition at 10 µM.

For orientation: IC50 means the concentration at which inhibition is half-maximal. As usually defined, the Ki is a dissociation constant, usually derived from enzyme kinetics or from competition with a known ligand.

Chain of Mitogen-activated protein kinase 1 (P28482 whole entry): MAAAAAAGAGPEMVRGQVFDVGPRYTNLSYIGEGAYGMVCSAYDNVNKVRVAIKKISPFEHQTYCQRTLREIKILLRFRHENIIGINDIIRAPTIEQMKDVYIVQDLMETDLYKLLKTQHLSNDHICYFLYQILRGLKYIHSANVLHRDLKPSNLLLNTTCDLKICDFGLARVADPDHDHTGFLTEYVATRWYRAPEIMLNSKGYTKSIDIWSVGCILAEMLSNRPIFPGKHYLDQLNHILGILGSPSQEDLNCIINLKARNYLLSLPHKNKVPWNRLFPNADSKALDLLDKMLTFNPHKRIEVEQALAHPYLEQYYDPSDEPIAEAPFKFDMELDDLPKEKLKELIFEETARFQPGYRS
Chain of Insulin receptor (P15127 27-759 limits assumed): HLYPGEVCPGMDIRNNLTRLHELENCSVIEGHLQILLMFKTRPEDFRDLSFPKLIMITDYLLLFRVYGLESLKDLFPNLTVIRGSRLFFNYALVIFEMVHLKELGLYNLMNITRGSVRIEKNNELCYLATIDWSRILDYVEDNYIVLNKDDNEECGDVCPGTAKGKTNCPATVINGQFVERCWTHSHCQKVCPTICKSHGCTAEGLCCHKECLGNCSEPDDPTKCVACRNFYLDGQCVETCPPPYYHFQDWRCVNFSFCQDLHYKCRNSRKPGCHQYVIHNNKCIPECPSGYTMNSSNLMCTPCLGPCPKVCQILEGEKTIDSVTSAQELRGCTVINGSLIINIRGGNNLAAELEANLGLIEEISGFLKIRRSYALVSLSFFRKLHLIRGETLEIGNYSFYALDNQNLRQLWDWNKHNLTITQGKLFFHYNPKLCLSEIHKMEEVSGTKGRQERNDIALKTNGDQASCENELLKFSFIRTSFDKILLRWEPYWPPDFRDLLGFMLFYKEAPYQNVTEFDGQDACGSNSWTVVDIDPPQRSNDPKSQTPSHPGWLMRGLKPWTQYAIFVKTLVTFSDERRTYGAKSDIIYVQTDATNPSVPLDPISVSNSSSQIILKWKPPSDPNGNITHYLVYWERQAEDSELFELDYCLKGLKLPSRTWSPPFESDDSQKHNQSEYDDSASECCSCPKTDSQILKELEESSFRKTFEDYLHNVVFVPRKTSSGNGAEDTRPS
Chain of Insulin receptor (P15127 764-1383 limits assumed): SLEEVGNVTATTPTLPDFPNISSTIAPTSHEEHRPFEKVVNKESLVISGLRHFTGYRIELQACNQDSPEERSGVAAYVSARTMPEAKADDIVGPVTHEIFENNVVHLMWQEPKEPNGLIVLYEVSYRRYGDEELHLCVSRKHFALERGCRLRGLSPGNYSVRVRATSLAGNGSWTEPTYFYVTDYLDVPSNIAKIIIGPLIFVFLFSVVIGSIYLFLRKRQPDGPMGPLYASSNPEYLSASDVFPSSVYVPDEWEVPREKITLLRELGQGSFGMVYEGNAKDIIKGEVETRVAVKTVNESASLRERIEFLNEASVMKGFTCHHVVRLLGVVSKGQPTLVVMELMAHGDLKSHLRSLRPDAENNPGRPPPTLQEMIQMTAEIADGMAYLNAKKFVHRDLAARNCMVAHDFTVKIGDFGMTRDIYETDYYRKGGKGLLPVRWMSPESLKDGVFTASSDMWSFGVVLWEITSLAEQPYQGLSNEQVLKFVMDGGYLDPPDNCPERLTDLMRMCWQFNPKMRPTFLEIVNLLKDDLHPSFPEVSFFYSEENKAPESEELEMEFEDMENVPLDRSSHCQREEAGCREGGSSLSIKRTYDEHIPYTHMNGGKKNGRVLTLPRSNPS
Chain of Delta-type opioid receptor (P41143 whole entry): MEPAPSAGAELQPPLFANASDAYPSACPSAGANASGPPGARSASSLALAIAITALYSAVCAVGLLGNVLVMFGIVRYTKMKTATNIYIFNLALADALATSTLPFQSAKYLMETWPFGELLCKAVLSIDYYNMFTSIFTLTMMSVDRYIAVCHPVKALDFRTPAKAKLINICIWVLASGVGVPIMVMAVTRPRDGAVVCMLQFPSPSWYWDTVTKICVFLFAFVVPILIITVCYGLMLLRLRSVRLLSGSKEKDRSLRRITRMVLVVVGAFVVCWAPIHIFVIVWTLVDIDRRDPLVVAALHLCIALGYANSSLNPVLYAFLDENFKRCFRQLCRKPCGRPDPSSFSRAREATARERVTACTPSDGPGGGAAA

For the compound `c1ccc(Cn2ccnc2)cc1`, the IC50 result (in assay [1] (hek293); at Carbonic anhydrase 2; in assay [2]; in assay [3]; against Interstitial collagenase; at Insulin receptor) was “Not Active” each time. Moreover, the IC50 entry in assay [4] is on record as “Not Active”. In addition, in assay [3], the Ki entry is listed as “Not Active”.
`C[N+](C)(C)CCOP(=O)([O-])OC[C@H](O)CO`: the IC50 entry (in assay [1] (hek293); at Carbonic anhydrase 2; in assay [2]; in assay [3]; at Interstitial collagenase; at Insulin receptor) was “Not Active” each time. The IC50 result in assay [4] is on record as “Not Active”. For the same compound, in assay [3], the Ki result was “Not Active”.
`NC(=O)CN1CCCC1=O`: the IC50 entry (in assay [1] (hek293); against Carbonic anhydrase 2; in assay [2]; in assay [3]; at Interstitial collagenase; at Insulin receptor) was “Not Active” each time. For the same compound, in assay [4], the IC50 entry is on record as “Not Active”. Also, the Ki entry in assay [3] is listed as “Not Active”.
As to `OC[C@H]1OC2C3[C@@H](CO)OC(O[C@H]4[C@H](O)[C@@H](O)[C@@H](O[C@H]5[C@H](O)[C@@H](O)[C@@H](O[C@H]6[C@H](O)[C@@H](O)[C@@H](O[C@H]7[C@H](O)[C@@H](O)[C@@H](O[C@H]8[C@H](O)[C@@H](O)[C@@H](O[C@H]9[C@H](O)[C@@H](O)C(OC1[C@H](O)[C@H]2O)O[C@@H]9CO)O[C@@H]8CO)O[C@@H]7CO)O[C@@H]6CO)O[C@@H]5CO)O[C@@H]4CO)[C@H](O)[C@H]3O`, the IC50 entry (in assay [1] (hek293); on Carbonic anhydrase 2; in assay [2]; in assay [3]; against Interstitial collagenase; at Insulin receptor) was “Not Active” in each case. Also, the IC50 entry in assay [4] is given as “Not Active”. Besides, the Ki result in assay [3] is “Not Active”.
For `CN(CCOc1ccc(C[C@H](Nc2ccccc2C(=O)c2ccccc2)C(=O)O)cc1)c1ccccn1`, the IC50 in assay [1] (read-out: IC50) is 3.21 µM; on Carbonic anhydrase 2, “Not Active”; in assay [2], “Not Active”; in assay [3], “Not Active”; against Interstitial collagenase it was “Not Active”; on Insulin receptor, “Not Active”. Also, the IC50 result in assay [4] is reported as “Not Active”. Moreover, the Ki is 1.13 µM in assay [1] (read-out: Ki) and “Not Active” in assay [3].
Regarding `O=c1[nH]c2ccccc2c2ccccc12`, the IC50 result (in assay [1] (hek293); against Carbonic anhydrase 2; in assay [2]; in assay [3]; against Interstitial collagenase; on Insulin receptor) was “Not Active” throughout. Moreover, the IC50 result in assay [4] is recorded as “Not Active”. Moreover, in assay [3], the Ki result is given as “Not Active”.
Take `CO[C@H]1O[C@@H]2O[C@@]3(C)CC[C@H]4[C@H](C)CC[C@@H]([C@H]1C)[C@@]24OO3`: the IC50 result (in assay [1] (hek293); against Carbonic anhydrase 2; in assay [2]; in assay [3]; on Interstitial collagenase; at Insulin receptor) was “Not Active” each time. For the same compound, the IC50 result in assay [4] is given as “Not Active”. For the same compound, the Ki entry in assay [3] is on record as “Not Active”.
As to `Nc1ccc(Cc2ccc(N)cc2)cc1`, the IC50 entry (in assay [1] (hek293); on Carbonic anhydrase 2; in assay [2]; in assay [3]; on Interstitial collagenase; on Insulin receptor) was “Not Active” in each case. Moreover, the IC50 result in assay [4] is on record as “Not Active”. Further, in assay [3], the Ki result was “Not Active”.
With `C=C(Cl)Cl` [1,1-DICHLOROETHENE], the IC50 entry (in assay [1] (hek293); against Carbonic anhydrase 2; in assay [2]; in assay [3]; against Interstitial collagenase; on Insulin receptor) was “Not Active” throughout. For the same compound, the IC50 result in assay [4] was “Not Active”. Besides, in assay [3], the Ki result is recorded as “Not Active”.
As for `CC(=O)Nc1ccc2c(c1)Cc1ccccc1-2` [2-ACETYLAMINOFLUORENE], the IC50 entry (in assay [1] (hek293); at Carbonic anhydrase 2; in assay [2]; in assay [3]; against Interstitial collagenase; against Insulin receptor) was “Not Active” in each case. The IC50 result in assay [4] is given as “Not Active”. Moreover, in assay [3], the Ki result is listed as “Not Active”.
For `O=C(Nc1ccc(Cl)c(Cl)c1)c1cc(Cl)cc(Cl)c1O` [3,3',4',5-TETRACHLOROSALICYLANILIDE], the IC50 result (in assay [1] (hek293); at Carbonic anhydrase 2; in assay [2]; in assay [3]; against Interstitial collagenase; against Insulin receptor) was “Not Active” in each case. In addition, in assay [4] (read-out: IC50), the IC50 came to 0.886 µM. The Ki result in assay [3] was “Not Active”.
For the compound `O=C(O)COC(=O)Cc1ccccc1Nc1c(Cl)cccc1Cl` [ACECLOFENAC], the IC50 entry (in assay [1] (hek293); on Carbonic anhydrase 2; in assay [2]; in assay [3]; against Interstitial collagenase; against Insulin receptor) was “Not Active” throughout. The IC50 in assay [4] (read-out: IC50) worked out at 5.93 µM. Moreover, the Ki result in assay [3] is recorded as “Not Active”.
On to `CCN1C[C@]2(COC)[C@H](O)C[C@H](OC)[C@@]34[C@@H]5C[C@@]6(O)[C@H](OC(=O)c7ccccc7)[C@@H]5[C@@](OC(C)=O)([C@@H]([C@H](OC)[C@H]23)[C@@H]14)[C@@H](O)[C@@H]6OC` [ACONITINE], for which the IC50 result (in assay [1] (hek293); against Carbonic anhydrase 2; in assay [2]; in assay [3]; at Interstitial collagenase; at Insulin receptor) was “Not Active” throughout. The half-maximal inhibitory concentration (IC50) entry in assay [4] is reported as “Not Active”. For the same compound, in assay [3], the Ki entry is reported as “Not Active”.
As to `CCO` [ALCOHOL], the IC50 entry (in assay [1] (hek293); against Carbonic anhydrase 2; in assay [2]; in assay [3]; against Interstitial collagenase; against Insulin receptor) was “Not Active” throughout. Further, in assay [4], the IC50 entry is reported as “Not Active”. Also, in assay [3], the Ki entry is “Not Active”.
For `C[C@@H]1[C@H](O)[C@@H](C)/C=C/C=C/C=C/C=C/C=C/C=C/C=C/[C@H](O[C@@H]2O[C@H](C)[C@@H](O)[C@H](N)[C@@H]2O)C[C@@H]2O[C@](O)(C[C@@H](O)C[C@@H](O)[C@H](O)CC[C@@H](O)C[C@@H](O)CC(=O)O[C@H]1C)C[C@H](O)[C@H]2C(=O)O` [AMPHOTERICIN B], the IC50 result (in assay [1] (hek293); on Carbonic anhydrase 2; in assay [2]; in assay [3]; at Interstitial collagenase; at Insulin receptor) was “Not Active” in each case. For the same compound, the Ki result in assay [3] is “Not Active”.
With `CN(Cc1cc(Br)cc(Br)c1N)C1CCCCC1` [BROMHEXINE], the IC50 entry (in assay [1] (hek293); at Carbonic anhydrase 2; in assay [2]; in assay [3]; at Interstitial collagenase; at Insulin receptor) was “Not Active” in each case. Moreover, the Ki entry in assay [3] was “Not Active”.
On to `NS(=O)(=O)c1cc(C(=O)O)c(NCc2ccco2)cc1Cl` [FUROSEMIDE], for which the IC50 entry (in assay [1] (hek293); in assay [2]; in assay [3]; at Interstitial collagenase; against Insulin receptor; in assay [4]) was “Not Active” in each case. The Ki entry in assay [3] is given as “Not Active”.
For the compound `C=CCN1CC[C@]23c4c5ccc(O)c4O[C@H]2/C(=N/N=C2\CC[C@@]4(O)[C@H]6Cc7ccc(O)c8c7[C@@]4(CCN6CC=C)[C@H]2O8)CC[C@@]3(O)[C@H]1C5` [NALOXONAZINE], the IC50 result (on Carbonic anhydrase 2; in assay [2]; in assay [3]; on Interstitial collagenase; on Insulin receptor; in assay [4]) was “Not Active” in each case. Further, in assay [3], the Ki result is listed as “Not Active”.
